The target of series [1] is AChE (Homo sapiens, UniProt P22303). In words: biochemical. Particulars: for pIC50: modified Ellman, read-out: AChE inhibitory activity IC50. Here is the method: (§1) The effects of twenty synthetic compounds were evaluated for AChE and BuChE inhibition using the modified method of Ellman et al.[33] […] AChE and BuChE are found in the brains of mammals. Genetically, structurally, and kinetically, the two kinds vary. In the human brain, BuChE is found in glial cells and neurons as well as in plaques and tangles in AD patients. […] BuChE may replace AChE by hydrolysing brain acetylcholine in some conditions, such as in mice nullizygote for AChE or in AD patients in advanced stages of the disease[34]^,[35].
Sequence of AChE (P22303 32-614): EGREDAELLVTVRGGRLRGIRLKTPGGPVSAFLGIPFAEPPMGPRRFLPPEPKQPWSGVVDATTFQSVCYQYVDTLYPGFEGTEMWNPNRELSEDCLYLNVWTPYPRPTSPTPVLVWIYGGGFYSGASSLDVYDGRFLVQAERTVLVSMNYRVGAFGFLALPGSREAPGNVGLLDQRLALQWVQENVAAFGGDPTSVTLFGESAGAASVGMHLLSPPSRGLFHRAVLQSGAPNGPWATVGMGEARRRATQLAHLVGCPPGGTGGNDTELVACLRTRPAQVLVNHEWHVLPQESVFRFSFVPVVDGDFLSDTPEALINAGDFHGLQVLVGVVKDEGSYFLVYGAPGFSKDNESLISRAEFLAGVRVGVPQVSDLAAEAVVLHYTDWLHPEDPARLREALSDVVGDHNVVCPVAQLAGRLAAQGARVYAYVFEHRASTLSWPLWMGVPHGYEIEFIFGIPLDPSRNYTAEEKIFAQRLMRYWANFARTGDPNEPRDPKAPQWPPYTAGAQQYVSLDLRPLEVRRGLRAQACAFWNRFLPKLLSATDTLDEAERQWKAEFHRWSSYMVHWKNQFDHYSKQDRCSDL

The target in series [2] is BuChE (Homo sapiens, UniProt P06276). In words: biochemical. The settings on record: modified Ellman; read-out: BuChE inhibitory activity IC50. The procedure:
as §1

Series [3] concerns the target T1, Aβ1–42 (Homo sapiens, UniProt P05067).
T1 construct: purchased BioVision K570-100
In words: Inhibition of Aβ1-42 self-induced aggregation (BioVision ligand screening kit). Type of series: biochemical. Particulars: µM. The text has this:
Screening Aβ42 ligands that could prevent aggregation is critical for developing potential therapeutic treatments. In BioVision’s Beta-Amyloid 1–42 (Aβ42) Ligand Screening kit, a dye binds to the beta-sheets of an aggregated amyloid peptide resulting in an intense fluorescent product at wave length 450 nm using a BIOLINE ELISA reader. In the presence of an Aβ42 ligand, this reaction is impeded/abolished resulting in a decrease or total loss of fluorescence. This assay is useful in screening Aβ42 ligands for developing potential therapeutic agents against AD[42]. The assessment was performed according to BioVision’s Beta-Amyloid 1–42 (Aβ42) Ligand Screening Kit Catalog No. K570-100.

In series [4] the test system is NO production in LPS-induced BV2 microglia cell lines. In words: Nitric oxide (NO) assessment in LPS-induced BV2 microglia. The format is cell-based. The settings on record: positive control 6.42 pg/mL. The procedure:
In AD, increased production of vascular NO, a highly neurotoxic mediator in the CNS, may contribute to the vulnerability of neurons to injury and cell death.
(§2) LPS was the used positive control.
NO plays an important role in neurotransmission, vascular regulation, immune response, and apoptosis. NO is rapidly oxidised to nitrite and nitrate which are used to quantitate NO. NO was estimated using the Abcam ELISA kit (catalog No. ab65328). Briefly, enzyme was added to cell lysate, followed with cofactor and incubated at room temperature for 60 min, after that Griess reagent was added and incubated at room temperature for 10 min., finally optical density was measured at 540 nm.
Microglia cell Line, BV-2, human neuroblastoma (SH-SY5Y), and normal hepatic (THLE2) cells were obtained from American Type Culture Collection, cells were cultured using DMEM (Invitrogen/Life Technologies, Carlsbad, CA) supplemented with 10% FBS (Hyclone), 10 µg/mL of insulin (Sigma, St. Louis, MO), and 1% penicillin-streptomycin. All of the other chemicals and reagents were from Sigma, or Invitrogen. Plate cells (cells density 1.2 − 1.8 × 10,000 cells/well) in a volume of 100 µL complete growth medium + 100 µL of the tested compounds per well in a 96-well plate for 24 h before the MTT assay.

The subject of series [5] is IL-1β production in LPS-induced BV2 microglia cell lines. As to the kind of experiment: IL-1β assessment in LPS-induced BV2 microglia (ELISA). Type of series: cell-based. The procedure: IL-1β is a pro-inflammatory cytokines involved in the pathogenesis of AD[40]. So, activity of 5b and 6b derivatives were evaluated against LPS-induced BV2 microglia cell lines production of IL-1β. They induced a decrease in IL-1β level to about 5% and 48%, sequentially, as compared to a positive control (Figure 5).
as §2
For IL-1β, this assay employs the quantitative sandwich enzyme immunoassay technique. A monoclonal antibody specific for human IL-1β has been pre-coated onto a micro plate. Standards and samples are piped into the wells and any IL-1β present is bound by the immobilised antibody. After washing away any unbound substances, an enzyme-linked polyclonal antibody specific for human IL-1β is added to the wells. Following a wash to remove any unbound antibody-enzyme reagent, a substrate solution is added to the wells and colour develops in proportion to the amount of IL-1β bound in the initial step. The colour development is stopped and the intensity of the colour is measured, the method of assessment was performed as instructed in the IL-1 β R&D system ELISA kit (catalog No. DLB50).

Series [6] has as its system COX-2 production in LPS-induced BV2 microglia cell lines. As to the kind of experiment: COX-2 assessment in LPS-induced BV2 microglia (ELISA). Type of series: cell-based. The procedure:
Previously, it was reported that COX-2 is a key mediator in the inflammatory response and may play a role in neurodegeneration.
as §2
For COX-2, all reagents, samples, and standards were prepared as Kit instructions, then 100 μl of standard or sample were added to each well, incubated 2.5 h at room temperature. Then 100 μl of prepared biotin antibody was added to each well, incubated an hour at room temperature. After that 100 μl of prepared Streptavidin solution was added. Then it was incubated for 45 min at room temperature. An aliquot of 100 μl TMB One-Step Substrate Reagent was added to each well, incubated 30 min at room temperature, 50 μL stop solution added to each well. Finally, the optical density was read at 450 nm immediately.

The test system of series [7] is TNF-α production in LPS-induced BV2 microglia cell lines. In words: TNF-α assessment in LPS-induced BV2 microglia (ELISA). The format is cell-based. Here is the method: TNF-α signalling exacerbates both Aβ and tau pathologies in vivo, according to several lines of evidence based on genetic and pharmacological modifications.
as §2
For TNF-α, cell lysate was used to assess TNF-α using the MyBioSource ELISA kit (Catalog No: MBS2502004). This assay employs the quantitative sandwich enzyme immunoassay technique. Briefly, 100 µl of the samples were added to each well. Incubate for 90 min at 37 °C, and immediately add 100 μl of Biotinylated Detection Ab working solution to each well. Incubate for 1 h at 37 °C, then add 350 µl of wash buffer to each well, 100 μl of HRP Conjugate working solution to each well was added, incubated for 30 min at 37 °C. Add 90 μl of Substrate Reagent to each well. Incubate for about 15 min at 37 °C. Then, 50 μl of Stop Solution was added to each well. Finally, the optical density of each well was detected at 450 nm.

pIC50: −log10 of the molar value. “And” between values parts separate entries of the source, which are not always exact repeats. Equal values may be shown once.

T1 sequence (P05067 672-713 limits assumed): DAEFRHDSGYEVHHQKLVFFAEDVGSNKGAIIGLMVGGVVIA
Sequence of BuChE (P06276 29-602): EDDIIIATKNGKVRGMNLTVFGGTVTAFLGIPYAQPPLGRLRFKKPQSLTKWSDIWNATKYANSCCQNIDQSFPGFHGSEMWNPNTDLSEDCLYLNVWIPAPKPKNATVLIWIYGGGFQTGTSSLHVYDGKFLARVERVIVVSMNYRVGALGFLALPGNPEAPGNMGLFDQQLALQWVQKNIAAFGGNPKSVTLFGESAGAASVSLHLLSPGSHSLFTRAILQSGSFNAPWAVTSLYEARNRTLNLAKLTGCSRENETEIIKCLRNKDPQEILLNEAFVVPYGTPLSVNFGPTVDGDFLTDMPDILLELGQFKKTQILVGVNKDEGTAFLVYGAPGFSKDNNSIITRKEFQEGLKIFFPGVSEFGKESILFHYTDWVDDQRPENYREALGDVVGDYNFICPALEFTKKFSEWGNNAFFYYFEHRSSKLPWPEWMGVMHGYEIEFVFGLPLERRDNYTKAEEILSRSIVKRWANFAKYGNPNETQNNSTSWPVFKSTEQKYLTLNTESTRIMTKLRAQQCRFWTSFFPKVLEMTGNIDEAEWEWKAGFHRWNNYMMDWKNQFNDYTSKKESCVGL

`CS(=O)(=O)n1cc(/C=C(/C(=O)O)c2ccccc2)c2ccccc21` gave a melting point of 181 to 183 °C.

For the compound `COc1cc(CC(=O)Nc2ccc(C(=O)/C=C/c3cn(S(C)(=O)=O)c4ccccc34)cc2)cc(OC)c1OC`, the melting point fell in the range of 176 to 178 °C.

As to `CS(=O)(=O)n1cc(/C=N/NC(=O)c2ccccc2)c2ccccc21`, the melting point is 114 to 116 °C.

With `COc1cc(-c2c(C#N)c(N)n(/N=C/c3cn(S(C)(=O)=O)c4ccccc34)c(=O)c2C#N)cc(OC)c1OC`, the melting point lay within 210 to 212 °C.

Consider `CS(=O)(=O)n1cc(/C=C(/C(=O)O)c2ccc(Cl)cc2)c2ccccc21` [Compound 3b, (E)-2–(4-Chlorophenyl)-3-[1-(methylsulfonyl)-1H-indol-3-yl]acrylic acid], for which the “AChE inhibition in words, compared to reference drugs (tacrine and donepezil)” value in series [1] is on record as “less activity”.

On to `COc1cc(/C(=C\c2cn(S(C)(=O)=O)c3ccccc23)C(=O)O)cc(OC)c1OC` [Compound 3c, (E)-3-[1-(Methylsulfonyl)-1H-indol-3-yl]-2–(3,4,5-trimethoxyphenyl)acrylic acid], for which the values for the pIC50 in series [2] and in series [1] were 6.93 and 7.39, respectively. Further, the 50% inhibitory concentration (IC50) in series [3] came to 6.91 µM.

As to `CS(=O)(=O)n1cc(/C=C(\C(=O)N2CCCCC2)c2ccc(Cl)cc2)c2ccccc21` [Compound 4a, (E)-2–(4-Chlorophenyl)-3-[1-(methylsulfonyl)-1H-indol-3-yl]-1-(pipridin-1-yl)prop-2-en-1-one], the pIC50 is 7.13 to 7.38 and 7.09 to 7.43 in series [2]; 6.79 to 6.88 in series [1]. In series [3], the half-maximal inhibitory concentration (IC50) was 22.4 µM.

Turning to `CS(=O)(=O)n1cc(/C=C(/C(=O)Nc2cccnc2)c2ccc(Cl)cc2)c2ccccc21` [Compound 4b, (E)-2–(4-Chlorophenyl)-3-[1-(methylsulfonyl)-1H-indol-3-yl]-N-(pyridin-3-yl)acrylamide], the pIC50 is 7.13 to 7.38 and 7.09 to 7.43 in series [2]; 6.79 to 6.88 in series [1]. This compound came in with an IC50 in series [3] of 13.8 µM.

With `CS(=O)(=O)n1cc(/C=C(\C(=O)N2CCN(c3ncccn3)CC2)c2ccc(Cl)cc2)c2ccccc21` [Compound 4c, (E)-2–(4-Chlorophenyl)-3-[1-(methylsulfonyl)-1H-indol-3-yl]-1-[4-(pyrimidin-2-yl)piprazin-1-yl]prop-2-en-1-one], the “AChE inhibition in words, compared to reference drugs (tacrine and donepezil)” value in series [1] was “less activity”.

`CS(=O)(=O)n1cc(C=C(C(=O)N2CCC(Cc3ccccc3)CC2)c2ccc(Cl)cc2)c2ccccc21` [Compound 4d, (E)-1–(4-Benzylpipridin-1-yl)-2–(4-chlorophenyl)-3-[1-(methylsulfonyl)-1H-indol-3-yl]prop-2-en-1-one]: the pIC50 was 7.13 to 7.38 and 7.09 to 7.43 in series [2]; 6.79 to 6.88 in series [1]. Besides, the IC50 in series [3] came out at 8.76 µM.

For `CS(=O)(=O)n1cc(/C=C/C(=O)c2ccc(NC(=O)Cc3ccccc3)cc2)c2ccccc21` [Compound 5a, (E)-N-{4-[3–(1-(methylsulfonyl)-1H-indol-3-yl)acryloyl]phenyl}-2-phenylacetamide], in series [1], the “AChE inhibition in words, compared to reference drugs (tacrine and donepezil)” value is “less activity”.

In series [4], `CS(=O)(=O)n1cc(/C=C/C(=O)c2ccc(NC(=O)Cc3ccc(Cl)cc3)cc2)c2ccccc21` [Compound 5b, (E)-2–(4-Chlorophenyl)-N-{4-[3–(1-(methylsulfonyl)-1H-indol-3-yl)acryloyl]phenyl}acetamide] showed an NO level of 4.89 pg/mL. Besides, in series [5], the “decrease in IL-1β level to about, as compared to a positive control” value was “about 5%”. The negative-log IC50 (pIC50) in series [2] is 7.43; in series [1], 7.56. In addition, in series [6], the “decrease in COX-2 levels as compared to a positive control” value is listed as “about 20%”. The same compound displayed an IC50 in series [3] of 2.5 µM. In addition, in series [7], the “decrease in TNF-α levels to, compared to positive control” value is recorded as 53%.

As to `CS(=O)(=O)n1cc(/C=C/C(=O)c2cccc(NC(=O)CN3CCC(Cc4ccccc4)CC3)c2)c2ccccc21` [Compound 6a, (E)-2–(4-Benzylpiperidin-1-yl)-N-{3-[3–(1-(methylsulfonyl)-1H-indol-3-yl)acryloyl]phenyl}acetamide], in series [1], the “AChE inhibition in words, compared to reference drugs (tacrine and donepezil)” value is recorded as “less activity”.

As to `CS(=O)(=O)n1cc(/C=N/NC(=O)Cc2ccccc2)c2ccccc21` [Compound 7b, (E)-N'-{[1-(Methylsulfonyl)-1H-indol-3-yl]methylene}-2-phenylacetohydrazide], the “AChE inhibition in words, compared to reference drugs (tacrine and donepezil)” value in series [1] is given as “less activity”.

As to `CS(=O)(=O)n1cc(/C=N/NC(=O)Cc2ccc(Cl)cc2)c2ccccc21` [Compound 7c, (E)-2–(4-Chlorophenyl)-N'-{[1-(methylsulfonyl)-1H-indol-3-yl]methylene}acetohydrazide], the pIC50 is 7.12 in series [2] and 7.05 in series [1]. Besides, in series [3], the IC50 was determined as 14.9 µM.

As for `COc1ccc(-c2c(C#N)c(N)n(/N=C/c3cn(S(C)(=O)=O)c4ccccc34)c(=O)c2C#N)cc1` [Compound 9a, (E)-6-Amino-4-(4-methoxyphenyl)-1-{[(1-(methylsulfonyl)-1H-indol-3-yl)methylene]amino}-2-oxo-1,2-dihydropyridine-3,5-dicarbonitrile], in series [1], the “AChE inhibition in words, compared to reference drugs (tacrine and donepezil)” value is reported as “less activity”.

Take `COc1ccc(-c2c(C#N)c(N)n(/N=C/c3cn(S(C)(=O)=O)c4ccccc34)c(=O)c2C#N)cc1OC` [Compound 9b, (E)-6-Amino-4–(3,4-dimethoxyphenyl)-1-{[(1-(methylsulfonyl)-1H-indol-3-yl)methylene]amino}-2-oxo-1,2-dihydropyridine-3,5-dicarbonitrile]: the “AChE inhibition in words, compared to reference drugs (tacrine and donepezil)” value in series [1] is “less activity”.

Regarding `CCn1c(N)c(C(=O)N/N=C/c2cn(S(C)(=O)=O)c3ccccc23)sc1=S` [Compound 10a, (E)-4-Amino-3-ethyl-N'-{[1-(methylsulfonyl)-1H-indol-3-yl]methylene}-2-thioxo-2,3-dihydrothiazole-5-carbohydrazide], the “AChE inhibition in words, compared to reference drugs (tacrine and donepezil)” value in series [1] is given as “less activity”.

Regarding `CS(=O)(=O)n1cc(/C=N/NC(=O)c2sc(=S)n(-c3ccccc3)c2N)c2ccccc21` [Compound 10b, (E)-4-Amino-N'-{[1-(methylsulfonyl)-1H-indol-3-yl]methylene}-3-phenyl-2-thioxo-2,3-dihydrothiazole-5-carbohydrazide], the pIC50 in series [2] is 7.32; in series [1], 7.19. In series [3], this compound registered a half-maximal inhibitory concentration (IC50) of 5.16 µM.

The record behind these values is paper PMC9518246, “Design and synthesis of new indole drug candidates to treat Alzheimer’s disease and targeting neuro-inflammation using a multi-target-directed ligand (MTDL) strategy” (Journal of Enzyme Inhibition and Medicinal Chemistry, 2022).
